Assay results taken from US20090221642A1, “MUSCARINIC RECEPTOR AGONISTS, COMPOSITIONS, METHODS OF TREATMENT THEREOF, AND PROCESSES FOR PREPARATION THEREOF-176” (AstraZeneca AB, priority 2008, published 2009).
pEC50: −log10 of the molar value.

Biological target: T1, hM1 (human Muscarinic receptor subtype 1) (Homo sapiens, UniProt P11229)
T1 construct: expressed in transfected cells; host or cells: CHO cells (Chinese hamster ovary cells, ATCC)
T1 sequence (P11229 1-460): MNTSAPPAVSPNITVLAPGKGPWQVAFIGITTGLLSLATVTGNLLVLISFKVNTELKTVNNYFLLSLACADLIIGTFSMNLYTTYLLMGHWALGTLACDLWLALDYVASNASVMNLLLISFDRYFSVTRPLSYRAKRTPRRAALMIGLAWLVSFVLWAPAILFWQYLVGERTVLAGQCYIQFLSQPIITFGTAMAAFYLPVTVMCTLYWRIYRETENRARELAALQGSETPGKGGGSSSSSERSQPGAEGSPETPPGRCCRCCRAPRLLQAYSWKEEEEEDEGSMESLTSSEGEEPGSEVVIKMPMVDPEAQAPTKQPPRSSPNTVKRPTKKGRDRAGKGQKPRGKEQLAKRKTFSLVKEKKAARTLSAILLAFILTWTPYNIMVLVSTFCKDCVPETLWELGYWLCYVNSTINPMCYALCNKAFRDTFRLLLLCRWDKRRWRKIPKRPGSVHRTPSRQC
Assay: Human M1 calcium mobilization FLIPR assay
Type: cell-based
Conditions: hM1 expressed in CHO cells, intracellular Ca2+ release, read-out: hM1 EC50
Protocol: Human M1, rat M1, human M3 and human M5 Calcium Mobilization FLIPR™ Assay
The compound activity in the present invention (EC50 or IC50) is measured using a 384 plate-based imaging assay that monitors drug induced intracellular Ca^2+ release in whole cells. Activation of hM1 (human Muscarinic receptor subtype 1, gene bank access NM_000738), rM1 (rat Muscarinic receptor subtype 1, gene bank access NM_080773), hM3 (human Muscarinic receptor subtype 3, gene bank access NM_000740NM_000740) and hM5 (human Muscarinic receptor subtype 5, gene bank access NM_0121258), receptors expressed in CHO cells (Chinese hamster ovary cells, ATCC) is quantified in a Molecular Devices FLIPR II™ instrument as an increase in fluorescent signal. Inhibition of hM3 and hM5 by compounds is determined by the decrease in fluorescent signal in response to 2 nM acetylcholine activation.
Prior to experiment, the cell culture medium is removed from the plates by inversion. […] Plates are incubated at 37° C. for 60 minutes prior to start the experiment. The incubation is terminated by washing the cells four times in assay buffer, leaving a residual 25 μl buffer per well. Cell plates are then transferred to the FLIPR, ready for compound additions.
The day of experiment, acetylcholine and compounds are diluted in assay buffer in three-fold concentration range (10 points serial dilution) for addition by FLIPR instrument. For all calcium assays, a baseline reading is taken for 10 seconds followed by the addition of 12.5 μl of compounds, resulting in a total well volume of 37.5 μl. Data is collected every second for 60 pictures and then every 6 seconds for 20 pictures prior to the addition of agonist. For hM3 and hM5, before agonist addition, a second baseline reading is taken for 10 seconds followed by the addition of 12.5 μl of agonist or buffer, producing a final volume of 50 μl. After agonist stimulation, the FLIPR continues to collect data every second for 60 pictures and then every 6 seconds for 20 pictures. The fluorescence emission is read using filter 1 (emission 510-570 nm) by the FLIPR on board CCD camera.
Calcium mobilization output data are calculated as the maximal relative fluorescence unit (RFU) minus the minimal value for both compound and agonist reading frame (except for hM1 and rM1 using only the maximal RFU). Data are analyzed using sigmoidal fits of a non-linear curve-fitting program (XLfit version 4.2.2 Excel add-in version 4.2.2 build 18 math 1Q version 2.1.2 build 18). All pEC50 and plC50 values are reported as arithmetic means ±standard error of mean of ‘n’ independent experiments.

Structure (SMILES)	pEC50
CCOC(=O)N1CCC(C)(N2CCC(N3C(=O)Cc4c3cc(F)cc4C(C)(C)C)CC2)C1 (stereo not drawn) [Example 85, ethyl 3-(4-(4-tert-butyl-6-fluoro-2-oxoindolin-1-yl)piperidin-1-yl)-3-methylpyrrolidine-1-carboxylate]	5.83
COC(=O)N1CCC(C)(N2CCC(N3C(=O)Cc4c3cc(C)cc4C(C)(C)C)CC2)C1 (stereo not drawn) [Example 86, methyl 3-(4-(4-tert-butyl-6-methyl-2-oxoindolin-1-yl)piperidin-1-yl)-3-methylpyrrolidine-1-carboxylate]	5.85
CCOC(=O)N1CCC(C)(N2CCC(N3C(=O)C4(CC4)c4ccc(F)cc43)CC2)C1 (stereo not drawn) [Example 87, ethyl 3-(4-(6′-fluoro-2′-oxospiro[cyclopropane-1,3′-indoline]-1′-yl)piperidin-1-yl)-3-methylpyrrolidine-1-carboxylate]	6.90
